# According to PubChem BioAssay AID328 (DTP/NCI, 2004):
# “And” between values parts separate entries of the source, which are not always exact repeats. Equal values may be shown once. Inconclusive results and toxic doses are left out.
# System: BDF1 mice, P388 leukemia ip, median survival T/C
# Test: NCI In Vivo Anticancer Drug Screen. Data for tumor model P388 Leukemia (intraperitoneal) in B6D2F1 (BDF1) mice
# Conditions: endpoint: median survival time, higher = longer survival
# Method in brief: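 Each value expresses how treatment altered survival: treated-mouse outcome over vehicle-mouse outcome, both groups bearing the transplanted tumour.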
# [1] = dose: 50.0 mg/kg/injection, schedule: Q01DX009 (ip), vehicle: Klucel (hydroxypropylcellulose) (HPC)
# [2] = dose: 100.0 mg/kg/injection, schedule: Q01DX009 (ip), vehicle: Klucel (hydroxypropylcellulose) (HPC)
# [3] = dose: 200.0 mg/kg/injection, schedule: Q01DX009 (ip), vehicle: Klucel (hydroxypropylcellulose) (HPC)
# [4] = dose: 100.0 mg/kg/injection, schedule: Q04DX003 (ip), vehicle: Klucel (hydroxypropylcellulose) (HPC)
# [5] = dose: 200.0 mg/kg/injection, schedule: Q04DX003 (ip), vehicle: Klucel (hydroxypropylcellulose) (HPC)
# [6] = dose: 400.0 mg/kg/injection, schedule: Q04DX003 (ip), vehicle: Klucel (hydroxypropylcellulose) (HPC)
# [7] = dose: 100.0 mg/kg/injection, schedule: Q04DX003 (ip), vehicle: saline with Tween-80
# [8] = dose: 200.0 mg/kg/injection, schedule: Q04DX003 (ip), vehicle: saline with Tween-80
# [9] = dose: 400.0 mg/kg/injection, schedule: Q04DX003 (ip), vehicle: saline with Tween-80
structure (smiles),measurement,setting,value
O=S1(=O)CCN(C2CCCCCCCCCCC2)CC1,T/C,[1],108 % of control
same,T/C,[2],106 % of control
same,T/C,[3],101 % of control
CC(=O)O[C@H]1CC[C@@]2(C)C(=CC[C@H]3[C@@H]4CC[C@H](O)[C@@]4(C)CC[C@@H]32)C1,T/C,[4],104 % of control
same,T/C,[5],100 % of control
same,T/C,[6],90 % of control
O=C(O)c1cc(-c2ccc(Cl)cc2)nc2c(Cl)cccc12,T/C,[1],100 % of control
same,T/C,"dose: 50.0 mg/kg/injection, schedule: Q04DX003 (ip), vehicle: Klucel (hydroxypropylcellulose) (HPC)",91 % of control
same,T/C,[2],100 % of control
same,T/C,[4],86 % of control
same,T/C,[5],86 % of control
CCN1CC2(COC)C(O)CC(OC)C34C5CC6(O)C(OC)C=C(C5C6OC(=O)c5ccc(OC)c(OC)c5)C(C(OC)C23)C14 (stereo unspecified),T/C,"dose: 0.19 mg/kg/injection, schedule: Q01DX009 (ip), vehicle: saline with Tween-80",120 % of control
same,T/C,"dose: 0.38 mg/kg/injection, schedule: Q01DX009 (ip), vehicle: saline with Tween-80",94 % of control
same,T/C,"dose: 0.75 mg/kg/injection, schedule: Q01DX009 (ip), vehicle: saline with Tween-80",90 % of control
CCCCC(CC)CCC(O)CC(C)C (stereo unspecified),T/C,[1],100 % of control
same,T/C,[2],95 % of control
same,T/C,[4],104 % of control
same,T/C,[3],100 % of control
same,T/C,[5],100 % of control
same,T/C,[6],100 % of control
COc1cc2cc(c1Cl)N(C)C(=O)CC(O)C1(C)OC1C(C)C1CC(O)(NC(=O)O1)C(OC)C=C/C=C(\C)C2 (stereo unspecified),T/C,"dose: 1.8 micrograms/kg/injection, schedule: Q01DX009 (ip), vehicle: saline + alcohol",102 % of control
same,T/C,"dose: 3.1 micrograms/kg/injection, schedule: Q01DX009 (ip), vehicle: saline + alcohol",102 % of control and 115 % of control
same,T/C,"dose: 6.2 micrograms/kg/injection, schedule: Q01DX009 (ip), vehicle: saline + alcohol",102 % of control and 108 % of control
same,T/C,"dose: 12.5 micrograms/kg/injection, schedule: Q01DX009 (ip), vehicle: saline + alcohol",102 % of control and 108 % of control
same,T/C,"dose: 25.0 micrograms/kg/injection, schedule: Q01DX009 (ip), vehicle: saline + alcohol",94 % of control and 113 % of control
same,T/C,"dose: 50.0 micrograms/kg/injection, schedule: Q01DX009 (ip), vehicle: saline + alcohol",94 % of control and 112 % of control
same,T/C,"dose: 100.0 micrograms/kg/injection, schedule: Q01DX009 (ip), vehicle: saline + alcohol",94 % of control and 105 % of control
same,T/C,"dose: 200.0 micrograms/kg/injection, schedule: Q01DX009 (ip), vehicle: saline + alcohol",108 % of control and 112 % of control
same,T/C,"dose: 400.0 micrograms/kg/injection, schedule: Q01DX009 (ip), vehicle: saline + alcohol",102 % of control
N/C(=N\OS(=O)(=O)c1ccccc1)Oc1ccccc1,T/C,[7],97 % of control
same,T/C,[8],95 % of control
same,T/C,[9],99 % of control
CCCCCCCC(=O)Nc1c(C)cc(C)cc1C,T/C,[7],109 % of control
same,T/C,[8],100 % of control
same,T/C,[9],109 % of control
CCN(CC)CCNc1ccc(CO)c2sc3ccccc3c(=O)c12,T/C,"dose: 17.3 mg/kg/injection, schedule: Q01DX009 (ip), vehicle: water",108 % of control
same,T/C,"dose: 18.75 mg/kg/injection, schedule: Q01DX009 (ip), vehicle: saline",104 % of control
same,T/C,"dose: 21.6 mg/kg/injection, schedule: Q01DX009 (ip), vehicle: water",119 % of control
same,T/C,"dose: 28.8 mg/kg/injection, schedule: Q01DX009 (ip), vehicle: water",122 % of control
same,T/C,"dose: 42.0 mg/kg/injection, schedule: Q01DX009 (ip), vehicle: water",150 % of control
same,T/C,"dose: 48.0 mg/kg/injection, schedule: Q01DX009 (ip), vehicle: water",170 % of control
same,T/C,"dose: 60.0 mg/kg/injection, schedule: Q01DX009 (ip), vehicle: water",160 % of control
same,T/C,"dose: 70.0 mg/kg/injection, schedule: Q01DX009 (ip), vehicle: water",122 % of control
same,T/C,"dose: 75.0 mg/kg/injection, schedule: Q01DX009 (ip), vehicle: saline",116 % of control
same,T/C,"dose: 80.0 mg/kg/injection, schedule: Q01DX009 (ip), vehicle: water",188 % of control
same,T/C,"dose: 88.0 mg/kg/injection, schedule: Q04DX003 (ip), vehicle: saline",109 % of control
same,T/C,"dose: 100.0 mg/kg/injection, schedule: Q01DX009 (ip), vehicle: water",113 % of control
same,T/C,"dose: 117.0 mg/kg/injection, schedule: Q01DX009 (ip), vehicle: water",97 % of control
same,T/C,"dose: 132.0 mg/kg/injection, schedule: Q04DX003 (ip), vehicle: saline",109 % of control
same,T/C,"dose: 200.0 mg/kg/injection, schedule: Q04DX003 (ip), vehicle: saline",122 % of control
same,T/C,"dose: 300.0 mg/kg/injection, schedule: Q04DX003 (ip), vehicle: saline",163 % of control
C#CC(OC(=O)NC1CCCCC1)(c1ccccc1)c1ccccc1,T/C,"dose: 16.5 mg/kg/injection, schedule: Q01DX009 (ip), vehicle: saline with Tween-80",98 % of control
same,T/C,"dose: 25.0 mg/kg/injection, schedule: Q01DX009 (ip), vehicle: saline with Tween-80",215 % of control
same,T/C,"dose: 37.5 mg/kg/injection, schedule: Q01DX009 (ip), vehicle: saline with Tween-80",213 % of control
same,T/C,"dose: 50.0 mg/kg/injection, schedule: Q01DX009 (ip), vehicle: saline with Tween-80",190 % of control
same,T/C,"dose: 88.0 mg/kg/injection, schedule: Q04DX003 (ip), vehicle: saline with Tween-80",183 % of control
same,T/C,"dose: 132.0 mg/kg/injection, schedule: Q04DX003 (ip), vehicle: saline with Tween-80",187 % of control
same,T/C,[8],116 % of control
O=C1/C(=N/O)Cc2ccccc21,T/C,"dose: 0.1 mg/kg/injection, schedule: Q01DX009 (ip), vehicle: water",101 % of control
same,T/C,"dose: 0.2 mg/kg/injection, schedule: Q01DX009 (ip), vehicle: water",103 % of control and 108 % of control
same,T/C,"dose: 0.8 mg/kg/injection, schedule: Q01DX009 (ip), vehicle: water",106 % of control
same,T/C,"dose: 1.2 mg/kg/injection, schedule: Q01DX009 (ip), vehicle: water",108 % of control
same,T/C,"dose: 2.4 mg/kg/injection, schedule: Q01DX009 (ip), vehicle: water",96 % of control
same,T/C,"dose: 3.12 mg/kg/injection, schedule: Q04DX003 (ip), vehicle: water",106 % of control
same,T/C,"dose: 6.25 mg/kg/injection, schedule: Q04DX003 (ip), vehicle: water",97 % of control
same,T/C,"dose: 12.5 mg/kg/injection, schedule: Q04DX003 (ip), vehicle: water",115 % of control
same,T/C,"dose: 25.0 mg/kg/injection, schedule: Q04DX003 (ip), vehicle: water",104 % of control
same,T/C,"dose: 50.0 mg/kg/injection, schedule: Q04DX003 (ip), vehicle: water",106 % of control
CCOc1ccc(OCC)c2c1C(=O)c1ccccc1C2=O,T/C,[4],100 % of control
same,T/C,[5],105 % of control
same,T/C,[6],111 % of control
CC(C)Cc1c[nH]c(=O)[nH]c1=O,T/C,[7],90 % of control
same,T/C,[8],90 % of control
same,T/C,[9],90 % of control
COCCCC/C(=N\OCCN)c1ccc(C(F)(F)F)cc1,T/C,"dose: 50.0 mg/kg/injection, schedule: Q01DX009 (ip), vehicle: saline",103 % of control
same,T/C,"dose: 100.0 mg/kg/injection, schedule: Q01DX009 (ip), vehicle: saline",112 % of control
same,T/C,"dose: 200.0 mg/kg/injection, schedule: Q01DX009 (ip), vehicle: saline",108 % of control
CN(C)c1ccc(-c2nc3ccccn3c2N)cc1,T/C,"dose: 1.56 mg/kg/injection, schedule: Q01DX009 (ip), vehicle: saline",105 % of control
same,T/C,"dose: 3.13 mg/kg/injection, schedule: Q01DX009 (ip), vehicle: saline",96 % of control
same,T/C,"dose: 6.25 mg/kg/injection, schedule: Q01DX009 (ip), vehicle: saline",113 % of control
CC(=O)C1COC(O)C1C (stereo unspecified),T/C,"dose: 0.63 mg/kg/injection, schedule: Q01DX010 (ip), vehicle: saline",95 % of control
same,T/C,"dose: 1.25 mg/kg/injection, schedule: Q01DX009 (ip), vehicle: saline",115 % of control and 103 % of control
same,T/C,"dose: 1.25 mg/kg/injection, schedule: Q01DX010 (ip), vehicle: saline",100 % of control
same,T/C,"dose: 2.5 mg/kg/injection, schedule: Q01DX010 (ip), vehicle: saline",116 % of control
Cc1ccc(NC(=S)NNC(=S)NNc2ccccc2)cc1C,T/C,[2],115 % of control
same,T/C,[3],120 % of control
